Laboratory results from the Deep4Chem optical property database.

Test: solvent given as SMILES
Settings: in CO

SMILES | emission maximum [nm]
CCCCCCN(CCCCCC)c1ccc(C#Cc2ccc(C#N)cc2)cc1 | 514
COc1ccc(-c2nc3c(c4c2-c2ccc(C#N)cc2CC4)-c2ccc(C#N)cc2CC3)cc1 | 426
CCOC(=O)COc1ccc(/C=C/c2c(CC)c(C)c3n2[B-](F)(F)[N+]2=C(c4[nH]c(C)c(CC)c4C)c4ccccc4C2=C3C)cc1 | 711
Clc1ccc(/C=C(\c2ccccc2)c2nc3ccccc3o2)cc1 | 420
CN(C)c1ccc(/C=C2\CC/C(=C\c3ccc(C#N)cc3)C2=O)cc1 | 693
Cc1ccc2nnn(-c3c(C#N)c4c(N)ncnc4n3[C@H]3C[C@H](O)[C@@H](CO)O3)c2c1 | 419
COc1ccc(/C=C2\OC(=O)c3cc(N)ccc32)cc1 | 486.14

Same assay, conditions: in CS(C)=O

SMILES | emission maximum [nm]
C(=C\c1cnccn1)/c1ccc(N(c2ccccc2)c2ccccc2)cc1 | 537
CN(C)c1ccc(C2=[N+]3C(=Nc4c(-c5ccc(O)cc5)cc(-c5ccc(N(C)C)cc5)n4[B-]3(F)F)C(c3ccc(O)cc3)=C2)cc1 | 832
COc1ccc(-c2nc3c(c4c2-c2ccc(C#N)cc2CC4)-c2ccc(C#N)cc2CC3)cc1 | 435
O=C1CCCc2c1[nH]c1cc3c(cc21)OCO3 | 403.54
CN(C)c1ccc(/C=C2\CC/C(=C\c3ccc(C#N)cc3)C2=O)cc1 | 731
O=C1CCCC2=C1C(c1cccc(Cl)c1)c1c(c3ccccc3oc1=O)N2 (centres undefined) | 443

Same assay, conditions: in Cc1ccccc1

SMILES | emission maximum [nm]
CC1(C)c2ccccc2N(c2ccc(B3c4ccccc4Oc4ccccc43)cc2)c2ccccc21 | 472
c1csc(-c2cnc(-c3cccs3)c3nonc23)c1 | 600
CN(C)c1ccc(C2=[N+]3C(=Nc4c(-c5ccc(O)cc5)cc(-c5ccc(N(C)C)cc5)n4[B-]3(F)F)C(c3ccc(O)cc3)=C2)cc1 | 813
COc1ccc(-c2nc3c(c4c2-c2ccc(C#N)cc2CC4)-c2ccc(C#N)cc2CC3)cc1 | 422
CCOC(=O)COc1ccc(/C=C/c2c(CC)c(C)c3n2[B-](F)(F)[N+]2=C(c4[nH]c(C)c(CC)c4C)c4ccccc4C2=C3C)cc1 | 709
CN(C)c1ccc(/C=C2\CC/C(=C\c3ccc(C#N)cc3)C2=O)cc1 | 558
c1ccc(-c2nc(-c3ccccc3)nc(-c3ccc(-n4c5ccccc5c5c6c(ccc54)C4(c5ccccc5-c5ccccc54)c4ccccc4-6)cc3)n2)cc1 | 444
c1ccc(-c2nc(-c3ccccc3)nc(-c3ccc(-n4c5ccccc5c5c4c4ccccc4n5-c4ccccc4)cc3)n2)cc1 | 526
CC(C)(C)c1ccc2oc(-c3ccc(-c4nc5cc(C(C)(C)C)ccc5o4)s3)nc2c1 | 434
CCCCCCCCCCCCn1cccc1/C=C/c1ccc(OCCCC)c2c(/C=C/c3cccn3CCCCCCCCCCCC)ccc(OCCCC)c12 | 490

Same assay, conditions: in ClC(Cl)(Cl)Cl

SMILES | emission maximum [nm]
c1csc(-c2cnc(-c3cccs3)c3nonc23)c1 | 580
CN(C)c1ccc(/C=C2\CC/C(=C\c3ccc(C#N)cc3)C2=O)cc1 | 513

Same assay, conditions: in ClC(Cl)Cl

emission maximum [nm] | SMILES
648 | CCCN1c2ccccc2Sc2cc(/C=C\c3cc(=O)oc4cc(C)c(Cl)cc34)ccc21
438 | F[B-]1(F)OC(c2ccccc2)=Cc2ccc3ccccc3[n+]21
697 | Cc1ccc(C2=CC(c3ccc(C)cc3)=[N+]3C2=Nc2c(-c4ccc(C)cc4)cc(-c4ccc(C)cc4)n2[B-]3(F)F)cc1
651 | O=C1c2ccc3c4c(-c5ccccc5)cc5c6c(ccc(c7c(-c8ccccc8)cc(c2c37)C(=O)N1C1CCCCC1)c64)C(=O)N(C1CCCCC1)C5=O
475 | COc1ccc2c3ccc(OC)cc3c3cc4c(C)cc(=O)oc4cc3c2c1

More lines, now with the values behind:

SMILES | emission maximum [nm]
c1csc(-c2cnc(-c3cccs3)c3nonc23)c1 | 611
CN(C)c1ccc(/C=C2\CC/C(=C\c3ccc(C#N)cc3)C2=O)cc1 | 603
c1ccc(-c2nc(-c3ccccc3)nc(-c3ccc(-n4c5ccccc5c5c6c(ccc54)C4(c5ccccc5-c5ccccc54)c4ccccc4-6)cc3)n2)cc1 | 496.99

Same assay, conditions: in ClCCl

emission maximum [nm] | SMILES
543 | C(=C\c1cnccn1)/c1ccc(N(c2ccccc2)c2ccccc2)cc1
452 | Cc1nc(-c2ccccc2O)n2c1CCCC2
441 | F[B-]1(F)OC(c2ccccc2)=Cc2ccc3ccccc3[n+]21
419 | c1ccc(N(c2ccccc2)c2ccc(-c3ccc4c(c3)C3(c5cc(-c6ccc(N(c7ccccc7)c7ccccc7)cc6)ccc5O4)c4ccccc4-c4ccccc43)cc2)cc1
560 | N#Cc1cc(/C=C/c2ccc(N(c3ccccc3)c3ccccc3)cc2)ccc1/C=C/c1ccc(/C=C/c2ccc(N(c3ccccc3)c3ccccc3)cc2)cc1
409 | CCCCCCC1(CCCCCC)c2ccccc2-c2ccc(-c3ccc(-c4cc(-c5ccccn5)nc(-c5ccccn5)c4)cc3)cc21
384 | O=P(c1ccccc1)(c1ccccc1)c1cccc(-n2c(-c3ccccc3P(=O)(c3ccccc3)c3ccccc3)nc3ccccc32)c1
393 | c1ccc(B2Nc3cc4c(cc3-c3occc32)NB(c2ccccc2)c2ccoc2-4)cc1
575 | Cc1cc(-c2ccc(N(c3ccccc3)c3ccccc3)cc2)c2nsnc2c1-c1ccc(C(C)(C)C)cc1
574 | CCN(CC)c1ccc(/N=N/c2nc3ccc(OC)cc3s2)cc1
444 | CCCCn1c(-c2ccc(-c3nnc(-c4cccs4)o3)cc2)nc(-c2ccccc2)c1-c1ccccc1

More lines, now with the values behind:

SMILES | emission maximum [nm]
CCCCCCN(CCCCCC)c1ccc(C#Cc2ccc(C#N)cc2)cc1 | 484
CC(C)[Si](C#Cc1ccc2c(C#C[Si](C(C)C)(C(C)C)C(C)C)cc3c4cc(C#C[Si](C(C)C)(C(C)C)C(C)C)ccc4c(C#C[Si](C(C)C)(C(C)C)C(C)C)cc3c2c1)(C(C)C)C(C)C | 408
COc1ccc(-c2nc3c(c4c2-c2ccc(C#N)cc2CC4)-c2ccc(C#N)cc2CC3)cc1 | 425
Cc1cc(O)c(C(=O)/C=C/c2ccccc2Cl)c(=O)o1 | 469
CCOC(=O)COc1ccc(/C=C/c2c(CC)c(C)c3n2[B-](F)(F)[N+]2=C(c4[nH]c(C)c(CC)c4C)c4ccccc4C2=C3C)cc1 | 714
CCN(CC)c1ccc(/C=N/C(C#N)=C(C#N)/N=C/c2ccc(N(CC)CC)cc2O)c(O)c1 | 612
CN(C)c1ccc(/C=C2\CC/C(=C\c3ccc(C#N)cc3)C2=O)cc1 | 643
CC[N+](CC)=c1ccc2cc3c(=O)oc4cc5c(cc4c3oc-2c1)CCCN5C | 648
Cc1ccc2c(c1)B(c1c(C(C)C)cc(C(C)C)cc1C(C)C)c1cc(C)cc3c1N2c1ccc(C)cc1B3c1c(C(C)C)cc(C(C)C)cc1C(C)C | 482

Same assay, conditions: in Clc1ccccc1Cl

SMILES | emission maximum [nm]
CN(C)c1ccc(/C=C2\CC/C(=C\c3ccc(C#N)cc3)C2=O)cc1 | 625
CC(C)(C)c1ccc2oc(-c3ccc(-c4nc5cc(C(C)(C)C)ccc5o4)s3)nc2c1 | 437

Same assay, conditions: in O

emission maximum [nm] | SMILES
771 | CC1(C)C(/C=C/C=C/C=C/C=C2/N(S(=O)(=O)[O-])c3ccc(S(=O)(=O)[O-])cc3C2(C)C)=[N+](S(=O)(=O)[O-])c2ccc(S(=O)(=O)[O-])cc21
566 | O=C([O-])c1c(Cl)c(Cl)c(Cl)c(Cl)c1-c1c2cc(I)c(=O)c(I)c-2oc2c(I)c([O-])c(I)cc12
660 | Cc1ccc(C2=C3C=CC(=[N+](C)C)C=C3[Si](C)(C)c3cc(N(C)C)ccc32)c(C)c1
463.6 | O=C1CCCc2c1[nH]c1cc3c(cc21)OCO3
658 | CC[N+](CC)=c1ccc2cc3c(=O)oc4cc5c(cc4c3oc-2c1)CCCN5C

Same assay, conditions: in O=C1CCCC1

SMILES | emission maximum [nm]
CN(C)c1ccc(/C=C2\CC/C(=C\c3ccc(C#N)cc3)C2=O)cc1 | 678

Same assay, conditions: in O=[N+]([O-])c1ccccc1

SMILES | emission maximum [nm]
c1csc(-c2cnc(-c3cccs3)c3nonc23)c1 | 614

Same assay, conditions: in OCC(F)(F)F

emission maximum [nm] | SMILES
485 | Cc1cc2c(o1)c(C)cc1ccc(=O)oc12

Same assay, conditions: in OCC(O)CO

SMILES | emission maximum [nm]
c1csc(-c2cnc(-c3cccs3)c3nonc23)c1 | 633

Same assay, conditions: in OCc1ccccc1

SMILES | emission maximum [nm]
c1csc(-c2cnc(-c3cccs3)c3nonc23)c1 | 628

Same assay, conditions: in S=C=S

SMILES | emission maximum [nm]
CN(C)c1ccc(/C=C2\CC/C(=C\c3ccc(C#N)cc3)C2=O)cc1 | 535

Same assay, conditions: in c1cc(-n2c3ccccc3c3ccccc32)cc(-n2c3ccccc3c3ccccc32)c1

emission maximum [nm] | SMILES
407 | c1ccc(N(c2ccccc2)c2ccc(-c3ccc4c(c3)C3(c5cc(-c6ccc(N(c7ccccc7)c7ccccc7)cc6)ccc5O4)c4ccccc4-c4ccccc43)cc2)cc1

Same assay, conditions: in c1ccc2ncccc2c1

SMILES | emission maximum [nm]
c1csc(-c2cnc(-c3cccs3)c3nonc23)c1 | 625

Same assay, conditions: in c1ccccc1

SMILES | emission maximum [nm]
c1csc(-c2cnc(-c3cccs3)c3nonc23)c1 | 601
O=C1CCCc2c1[nH]c1cc3c(cc21)OCO3 | 384.12
CN(C)c1ccc(/C=C2\CC/C(=C\c3ccc(C#N)cc3)C2=O)cc1 | 569
CC(C)(C)c1ccc2oc(-c3ccc(-c4nc5cc(C(C)(C)C)ccc5o4)s3)nc2c1 | 434

Same assay, conditions: in c1ccncc1

SMILES | emission maximum [nm]
c1csc(-c2cnc(-c3cccs3)c3nonc23)c1 | 617
CN(C)c1ccc(/C=C2\CC/C(=C\c3ccc(C#N)cc3)C2=O)cc1 | 673
